According to the NIST ThermoML archive (doi:10.1016/j.jct.2015.07.028):
± gives the expanded uncertainty stated by the source.

Conditions: Liquid, Closed cell (Static) method

Compound: O [water]
- vapor or sublimation pressure (276.1 K): 0.753 ± 0.011 kPa
- vapor or sublimation pressure (276.16 K): 0.76 ± 0.011 kPa
- vapor or sublimation pressure (278.47 K): 0.894 ± 0.013 kPa
- vapor or sublimation pressure (280.8 K): 1.05 ± 0.015 kPa
- vapor or sublimation pressure (283.11 K): 1.223 ± 0.02 kPa
- vapor or sublimation pressure (285.49 K): 1.43 ± 0.021 kPa
- vapor or sublimation pressure (285.52 K): 1.44 ± 0.021 kPa
- vapor or sublimation pressure (288.24 K): 1.708 ± 0.022 kPa
- vapor or sublimation pressure (290.65 K): 1.994 ± 0.026 kPa
- vapor or sublimation pressure (290.71 K): 2.01 ± 0.026 kPa
- vapor or sublimation pressure (293.51 K): 2.398 ± 0.03 kPa
- vapor or sublimation pressure (295.49 K): 2.697 ± 0.034 kPa
- vapor or sublimation pressure (295.58 K): 2.707 ± 0.034 kPa
- vapor or sublimation pressure (298.22 K): 3.182 ± 0.038 kPa
- vapor or sublimation pressure (298.33 K): 3.202 ± 0.039 kPa
- vapor or sublimation pressure (300.72 K): 3.703 ± 0.045 kPa
- vapor or sublimation pressure (300.8 K): 3.708 ± 0.045 kPa
- vapor or sublimation pressure (302.99 K): 4.213 ± 0.051 kPa
- vapor or sublimation pressure (305.57 K): 4.882 ± 0.057 kPa
- vapor or sublimation pressure (305.6 K): 4.869 ± 0.057 kPa
- vapor or sublimation pressure (307.8 K): 5.499 ± 0.065 kPa
- vapor or sublimation pressure (310.42 K): 6.36 ± 0.074 kPa
- vapor or sublimation pressure (310.49 K): 6.404 ± 0.074 kPa
- vapor or sublimation pressure (312.73 K): 7.192 ± 0.083 kPa
- vapor or sublimation pressure (315.28 K): 8.236 ± 0.095 kPa
- vapor or sublimation pressure (315.37 K): 8.313 ± 0.096 kPa
- vapor or sublimation pressure (317.67 K): 9.333 ± 0.11 kPa
- vapor or sublimation pressure (320.11 K): 10.56 ± 0.12 kPa
- vapor or sublimation pressure (320.2 K): 10.63 ± 0.12 kPa
- vapor or sublimation pressure (322.5 K): 11.93 ± 0.14 kPa
- vapor or sublimation pressure (322.54 K): 11.99 ± 0.14 kPa
- vapor or sublimation pressure (325.01 K): 13.51 ± 0.15 kPa
